# From patent US9428732B2, “Compositions and methods for differentiating pluripotent stem cells into primitive blood cells and uses thereof” (Primorigen Biosciences, Inc., priority 2011, dated 2016)
# Key:
# Format in all cases: cell-based, human
# [1] = tested on: pluripotent stem cell differentiation cultures; test: Quantitative gene expression analysis during differentiation (Day 0, 4, 8, 12, 15); conditions: for expression of SCL: FIG. 6M; for expression of FOXF1: FIG. 6E; for expression of FOXC1: FIG. 6F
# From the text: RNA from the pluripotent stem cell differentiation cultures was harvested at multiple time points corresponding to stages of development from pluripotent stem cells to hematopoietic lineages during in vitro culture. Cells were lysed using Trizol (Life Technologies, Carlsbad Calif.), and RNA was isolated according to the manufacturer's specifications. A cDNA library was reverse transcribed by the High Capacity RNA-to-cDNA Kit from Applied Biosystems (Life Technologies, Carlsbad, Calif.). PCR products were amplified for 40 cycles using primers designed for the gene of interest.
# Gene expression studies were carried out to determine expression of key genes for the major divergences in the pathway from iPS to HSC. Briefly, RNA from the differentiation cultures was harvested at multiple time points (Day 0, 4, 8, 12, 15), corresponding to stages of development during in vitro culture and differentiation of pluripotent stem cells to hematopoietic lineages using Differentiation Medium 1. Cells were lysed using Trizol (Life Technologies, Carlsbad Calif.) and RNA was isolated according to manufacturer's specifications. A cDNA library was reverse transcribed using the RNA-to-cDNA Kit from Applied Biosystems (Life Technologies, Carlscad, Calif.). PCR products were amplified using appropriate primers designed for the genes of interest for 40 cycles.
# To understand how RA-signaling inhibition with DEAB may lead to increased output of the most primitive blood cells (phenotypic HSCs: CD45+, CD43+, CD34+, CD38−, CD90+, CD45RA−) from pluripotent stem cells without an increase in the total blood (mature cells and progenitors), we performed quantitative gene expression analyses for key development markers at various time points during the differentiation protocol. As the developmental marker genes we surveyed are not known to be direct targets of RA signaling, we can expect the marker gene expression levels to correlate to the cell numbers in culture.
# [2] = tested on: pluripotent stem cell differentiation cultures; test: Beating cardiomyocyte colonies in differentiation cultures; conditions: cultures using DEAB; data not shown
# From the text: Within the mesoderm lineage we then quantified the expression of markers of the paraxial (FOXC1) and lateral plate (FOXF1, hematopoietic and cardiac precursor) mesoderm. […] This is likely the result of anterior lateral plate mesoderm formation (precursors of the heart). We saw a dramatic upregulation of the cardiogenic mesoderm marker NKX2.5 in the DMSO control at this time point (FIG. 6G, Day 12 onward).
# ES and iPS cells = test: Small molecule screen, CFU-GEMM assays of myeloid progenitors; conditions: relative to DMSO control; DEAB 10 μM, rapamycin 0.1 μM; FIG. 3D
# Method: The differentiation cultures were trypsinized at the indicated time points and single-cell suspensions were generated following trypsinization. For the Colony Forming Unit (CFU) assays using methyl cellulose cultures, 25% of the cells were plated in 2 ml of MethoCult H4435 (STEMCELL Technologies, Vancouver, BC) in six-well plates. Alternatively, sorted CD45+, CD43+, CD34+, 7AAD-cells were sorted and plated at 500 cells per 2 ml Methocult media. Cells were incubated for 14 days in a humidified incubator at 37° C. with 5% CO2 and evaluated for colonies by bright-field microscopy (Zeiss (Oberkochen, Germany, www.zeiss.com) Axiovert 200 with a Zeiss Axiocam), Cells were resuspended in PBS supplemented with 2% FBS. For the lymphoid myeloid differentiation assays, either CD45+, CD43+, CD34+, 7AAD-hematopoietic progenitors, or CD45+, CD43+, CD34+, CD38−, CD90+, CD45RA− phenotypic HSCs were plated at 20-40 cells per well onto OP9 and OP9delta feeder lines for B-cell and T-cell differentiation, respectively, as previously described (Nozad Charoudeh H, Tang Y, Cheng M, Cilio C M, Jacobsen S E, Sitnicka E., Identification of an NK/T cell-restricted progenitor in adult bone marrow contributing to bone marrow- and thymic-dependent NK cell, Blood, 2010 Jul. 15; 116(2):183-92. NK cell differentiation as well as myeloid cell differentiation was also detected in this differentiation system. […]
# [3] = DEAB vs DMSO, early time points
smiles,measurement,setting,value
"CCN(CC)c1ccc(C=O)cc1 [DEAB, 4-diethylaminobenzaldehyde]",expression of SCL,"[1]; DEAB compared to DMSO, Day 15",increased SCL expression
same,expression of SCL,"[1]; DEAB vs DMSO, Day 8-12",Increased SCL expression with DMSO compared to DEAB
same,expression of FOXF1,"[1]; DEAB vs DMSO, Day 8 onward",comparable
same,expression of RUNX1 (definitive hematopoietic cell marker),"[1]; DEAB vs DMSO, Day 12-15, FIG. 6I",increased expression
same,expression of cardiogenic lateral plate mesoderm marker NKX2.5,"[1]; DEAB vs DMSO, Day 12 onward, FIG. 6G",reduced expression
same,expression of FOXC1,"[1]; DEAB vs DMSO, Days 6-12",significantly reduced
same,increase in expression of primitive streak mesoderm marker MIXL1,"[1]; DEAB vs DMSO, FIG. 6C",20%
same,expression of endoderm specific marker SOX17,"[1]; DEAB vs DMSO, FIG. 6D",significantly reduced
same,CD31 expression (primitive wave endothelial cells),"[1]; DEAB vs DMSO, FIG. 6L",reduced
same,expression of ectoderm and neuroectoderm marker PAX6,"[1]; DEAB vs DMSO, early time point, FIG. 6A",reduced expression
same,expression of FOXF1,[1]; [3],elevated levels
same,expression of FOXC1,[1]; [3],elevated levels
same,expression of mesoderm marker Brachyury,"[1]; DEAB vs DMSO, first days of differentiation, FIG. 6B",significantly increased
same,expression of PAX6,"[1]; DEAB vs DMSO, later time points, FIG. 6A",later equalized
same,expression of FLK1,"[1]; DEAB, Day 4",high levels
same,expression of RARa,"[1]; DEAB, Day 8, FIG. 6N",reduced levels
same,expression of RARb,"[1]; DEAB, Day 8, FIG. 6O",reduced levels
same,expression of APLNR,"[1]; DEAB, Day 12, FIG. 6H",expressed highly
same,expression of PDGFRA,"[1]; DEAB, Day 12, FIG. 6J",downregulated
same,expression of FLK1,"[1]; DEAB, Days 12-15",increased
same,expression of RA target CD38 by PCR,"[1]; DEAB, FIG. 6P",reduction
same,numbers of beating cardiomyocytes colonies,[2],significantly reduced numbers
same,output of myeloid progenitors (CFU/BFU),ES and iPS cells,increased
